This is an account of results in patent publication US20100129800A1, “POLYMERS AND THEIR USE AS FLUORESCENT LABELS” (priority 2007, published 2010).

Where two headings read alike, the source gives them in different places.

A short description of series [1]: Fluorescence properties of the new compounds (excitation and emission wavelengths). The format is physicochemical.
The subject of another series is AT rich sequences. As to the kind of experiment: Competitive dialysis. Format: binding. The text has this: (§1) Compounds that bind nucleic acids may show preference for certain sequences. This preference can be used for the detection of specific nucleic acid sequences. One of the methods used to analyse the sequence specificity of DNA-binding compounds is the competition dialysis (c.f. Ren, J. et al., “Sequence and structural selectivity of nucleic acid binding ligands”, Biochemistry, 1999, vol. 38, pp […]). In this method different nucleic acid structures are dialyzed against a common compound solution. […] The amount of compound present in each DNA sequence is measured by fluorescence.
(§2) We analysed the sequence specificity of the following polymers of the invention: Aca-p-Aca, QgpQgp(npa), Act-(p-Act)5, Act-p-Qut-p-Agt, Act-p-Qut-p-Act, Act-p-Qut-p-Nct, Qut-p-Qut-p-Qut, Act-p-Qut-p-Qut, and Act-p-Act-p-Act for DNA sequences: • duplex with an alternating CG sequence (5′-CGCGCG-T4-CGCGCG-3′); • duplex with a contiguous CG sequence (5′- CCCGGG-T4-CCCGGG-3′); • duplex with an alternating AT sequence (5′-[…]-T4-[…]); • duplex with a contiguous AT sequence (5′-[…]-T4-[…]); • a parallel triplex (5′-T20-3′-3′-T20-5′+A20); and • a G-quadruplex (thrombin-binding aptamer: 5′-[…]-3′ (SEQ ID NO 1); (c.f. Bock, L. C. et al., “Selection of single-stranded DNA molecules that bind and inhibit human thrombin”, Nature, 1992, vol. 355, pp 564-566).
(§3) Said DNA sequences have been used in order to determine: 1) the affinity of each one of the polymers for a specific tandem of nucleotides (CG, AT, GT); and 2) if the affinity for a specific tandem of nucleotides is affected by its distribution into the sequence (i.e., if the tandem is alternated or contiguous in the sequence).
(§4) The competition dialysis assay was performed placing into a beaker 200 ml of dialysate solution containing 1 μM of ligand in 2 mM sodium phosphate, 2 mM EDTA and 0.185 M NaCl pH 7.0. A volume of 0.1 ml (at 1 mg/ml) of each DNA samples was pipeted into a separate 0.1 ml dialysis unit (Mini Slide-A-lyzer 3.5K, Pierce). The dialysis units were placed in the beaker containing the dialysate solution using a floating device. The contents were allowed to equilibrate with continuous stirring for 24 hours at room temperature. At the end of the equilibration period, DNA samples were carefully removed to eppendorf tubes and were taken to a final concentration of 1% (w/v) sodium dodecyl sulfate (SDS). The concentration of polymer within each dialysis unit was then determined by fluorescence spectroscopy. The free polymer concentration was determined using an aliquot of the dialysate solution as well as with the solution coming from a blank (without DNA) dialysis unit.
(§5) The concentration of the polymer (which is determined by fluorescence spectroscopy) indicates its specificity for a specific sequence: the more higher is the concentration, more specific is for said sequence.

Series [2] has as its system duplex with a contiguous CG sequence (5′- CCCGGG-T4-CCCGGG-3′). As to the kind of experiment: Competitive dialysis. The format is binding.
From the text: as §1, §2, §3, §4, §5

Series [3] deals with parallel triplex (5′-T20-3′-3′-T20-5′+A20). As to the kind of experiment: Competitive dialysis. Format: binding.
From the text: as §1, §2, §3, §4, §5

Series [4] concerns c-myc promoter region G-quadruplex. As to conditions: 1 μM ligand, 24 hours, room temperature.
From the text: as §1
(§6) Furthermore, the inventors analyzed the binding properties of two dimers of the invention, Act-p-Act and Act-p-Qut, in front of several DNA sequences which are known in the state in the art to be biologically-relevant G-quadruplex structures: • 5′- […]-3′, (SEQ ID NO: 1 supra) as thrombin-binding aptamer: G-quadruplex; • 5′- […]-3′ (SEQ ID NO: 2) as a fragment of the promoter region of c-myc oncogen (c.f. Siddiqui-Jain A. et al., “Direct evidence for a G-quadruplex in a promoter region and its targeting with a small molecule to repress c-myc transcription”, Proc. Natl. Acad. Sci. USA, 2002, v. 99, p. […]
as §5

Series [5] concerns human telomere G-quadruplex. The settings on record: 1 μM ligand, 24 hours, room temperature.
From the text: as §1, §6, §5

Series [6] deals with G-quadruplex (thrombin-binding aptamer: 5′-GGTTGGTGTGGTTGG-3′). The settings on record: 1 μM ligand, 24 hours, room temperature.
From the text: as §1
(§7) We analysed the sequence specificity of the following polymers of the invention: Aca-p-Aca, QgpQgp(npa), Act-(p-Act)5, Act-p-Qut-p-Agt, Act-p-Qut-p-Act, Act-p-Qut-p-Nct, Qut-p-Qut-p-Qut, Act-p-Qut-p-Qut, and Act-p-Act-p-Act for DNA sequences: • duplex with an alternating CG sequence (5′-CGCGCG-T4-CGCGCG-3′); • duplex with a contiguous CG sequence (5′- CCCGGG-T4-CCCGGG-3′); • duplex with an alternating AT sequence (5′-[…]-T4-[…]); • duplex with a contiguous AT sequence (5′-[…]-T4-[…]); • a parallel triplex (5′-T20-3′-3′-T20-5′+A20); and • a G-quadruplex (thrombin-binding aptamer: 5′-[…]-3′ (SEQ ID NO 1); (c.f. Bock, L. C. et al., “Selection of single-stranded DNA molecules that bind and inhibit human thrombin”, Nature, 1992, vol. 355, pp 564-566). […]

Series [7] has as its system duplex with a contiguous AT sequence (5′-AAAATTTT-T4-AAAATTTT). The settings on record: 1 μM ligand, 24 hours, room temperature.
From the text: as §1, §7

Where [8] appears, read: 1 μM ligand, 24 hours, room temperature.

In the case of `CC(O)C(COP(=O)(O)OC(C)C(COP(=O)(O)OC(C)C(CO)NC(=O)c1c2ccccc2nc2ccccc12)NC(=O)c1c2ccccc2nc2c1[nH]c1ccccc12)NC(=O)c1c2ccccc2nc2ccccc12` (centres unmarked) [Example 44, O-{2-N-(Acridine-9-carbamoyl)-(1-hydroxybut-3-yl)} phosphate (3-1) O-{2-N-(10H-indolo[3,2-d]quinoline-11-carbamoyl)-3-oxybut-1-yl} phosphate (3-1) O-{2-N-(acridine-9-carbamoyl)-(3-hydroxybut-1-yl)}], the “Fluorescence Excitation (nm)” value in series [1] is reported as 359 nm. Further, the “Fluorescence emission (nm)” value in series [1] is 438 nm. The “affinity (concentration of polymer retained, by fluorescence)” value (from here on “affinity”) (with AT rich sequences; in series [2]; in series [3]) was “higher affinity” each time.
Regarding `CC(O)C(COP(=O)(O)OC(C)C(COP(=O)(O)OC(C)C(CO)NC(=O)c1c2ccccc2nc2ccccc12)NC(=O)c1c2ccccc2nc2c1[nH]c1ccccc12)NC(=O)c1c2ccccc2nc2c1[nH]c1ccccc12` (centres unmarked) [Example 29, O-{2-N-(Acridine-9-carbamoyl)-(1-hydroxybut-3-yl)} phosphate (3-1) O-{2-N-(10H-indolo[3,2-d]quinoline-11-carbamoyl)-3-oxybut-1-yl} phosphate (3-1) O-(2-N-{10H-indolo[3,2-d]quinoline-11-carbamoyl}-3-hydroxybut-1-yl)], the “Fluorescence Excitation (nm)” value in series [1] (free compound) is reported as 353 nm. In addition, in series [1] (free compound), the “Fluorescence emission (nm)” value is on record as 440 nm. Moreover, the “affinity” value (in the series on AT rich sequences (setting [8]); in series [2] (setting [8]); in series [3] (setting [8])) was “higher affinity” throughout.
In the case of `CC(O)C(COP(=O)(O)OC(C)C(COP(=O)(O)OC(C)C(COP(=O)(O)OC(C)C(COP(=O)(O)OC(C)C(COP(=O)(O)OC(C)C(CO)NC(=O)c1c2ccccc2nc2ccccc12)NC(=O)c1c2ccccc2nc2ccccc12)NC(=O)c1c2ccccc2nc2ccccc12)NC(=O)c1c2ccccc2nc2ccccc12)NC(=O)c1c2ccccc2nc2ccccc12)NC(=O)c1c2ccccc2nc2ccccc12` (centres unmarked) [Example 30, O-{2-N-(Acridine-9-carbamoyl)-(1-hydroxybut-3-yl)} phosphate (3-1) O-{2-N-(acridine-9-carbamoyl)-(1-hydroxybut-3-yl)} phosphate (3-1) O-{2-N-(acridine-9-carbamoyl)-(1-hydroxybut-3-yl)} phosphate (3-1) O-{2-N-(acridine-9-carbamoyl)-(1-hydroxybut-3-yl)} phosphate (3-1) O-{2-N-(acridine-9-carbamoyl)-(1-hydroxybut-3-yl)} phosphate (3-1) O-{2-N-(acridine-9-carbamoyl)-3-hydroxybut-1-yl}], in series [1] (free compound), the “Fluorescence Excitation (nm)” value turned out to be 350 nm and the “Fluorescence emission (nm)” value stood at 438 nm. In series [3] (setting [8]), the “affinity” value is recorded as “high affinity”.
For `CC(O)C(COP(=O)(O)OC(C)C(COP(=O)(O)OC(C)C(CO)NC(=O)c1c2ccccc2nc2c1[nH]c1ccccc12)NC(=O)c1c2ccccc2nc2c1[nH]c1ccccc12)NC(=O)c1c2ccccc2nc2c1[nH]c1ccccc12` (centres unmarked) [Example 42, O-{2-N-(10H-indolo[3,2-d]quinoline-11-carbamoyl)-3-oxybut-1-yl} phosphate (3-1) O-{2-N-(10H-indolo[3,2-d]quinoline-11-carbamoyl)-3-oxybut-1-yl} phosphate (3-1) O-(2-N-{10H-indolo[3,2-d]quinoline-11-carbamoyl}-3-hydroxybut-1-yl)], the “Fluorescence Excitation (nm)” value in series [1] (free compound) is 359 nm. Moreover, the “Fluorescence emission (nm)” value in series [1] (free compound) turned out to be 499 nm. Moreover, the “affinity” value (in the series with AT rich sequences (setting [8]); in series [2] (setting [8]); in series [3] (setting [8])) was “higher affinity” in each case.
Regarding `CC(O)C(COP(=O)(O)OC(C)C(CO)NC(=O)c1c2ccccc2nc2ccccc12)NC(=O)c1c2ccccc2nc2c1[nH]c1ccccc12` (centres unmarked) [Example 27, O-{2-N-(Acridine-9-carbamoyl)-(1-hydroxybut-3-yl)} and O-{2-N-(10H-indolo[3,2-d]quinoline-11-carbamoyl)-3-hydroxybut-1-yl) phosphate], the “Fluorescence Excitation (nm)” value in series [1] (free compound) is 358 nm. In series [1] (free compound), the “Fluorescence emission (nm)” value is given as 438 nm. Also, the “affinity” value in series [4] and in series [5] was “very high affinity” in each case.
Take `CC(=O)NCCN(CC(=O)NCCN(CC(=O)NCCCCCCO)C(=O)CNC(=O)c1c2ccccc2nc2c1[nH]c1ccccc12)C(=O)CNC(=O)c1c2ccccc2nc2c1[nH]c1ccccc12` [Example 48]: in series [1] (free compound), the “Fluorescence Excitation (nm)” value is recorded as 349 nm and the “Fluorescence emission (nm)” value worked out at 495 nm. The “affinity” value in series [6] was “high affinity”. Moreover, in series [7], the “affinity” value was “high affinity”.
